Where two headings read alike, the source gives them in different places. Marks after values point to notes of the source that are not given here.
How the values were obtained:
MDA-MB-231 cell lines = test: MTT antiproliferative assay; format: cell-based, human
MCF-7 cell lines = test: MTT antiproliferative assay; format: cell-based, human
ERα = molecular target: T1, ERα (Homo sapiens, UniProt P03372); test: Fluorescence polarization competition assay: antagonistic potency and relative binding affinity; settings: virtually screened NCI hits, Table S17; read-out: ERα (IC50)
T1 sequence (P03372 1-595): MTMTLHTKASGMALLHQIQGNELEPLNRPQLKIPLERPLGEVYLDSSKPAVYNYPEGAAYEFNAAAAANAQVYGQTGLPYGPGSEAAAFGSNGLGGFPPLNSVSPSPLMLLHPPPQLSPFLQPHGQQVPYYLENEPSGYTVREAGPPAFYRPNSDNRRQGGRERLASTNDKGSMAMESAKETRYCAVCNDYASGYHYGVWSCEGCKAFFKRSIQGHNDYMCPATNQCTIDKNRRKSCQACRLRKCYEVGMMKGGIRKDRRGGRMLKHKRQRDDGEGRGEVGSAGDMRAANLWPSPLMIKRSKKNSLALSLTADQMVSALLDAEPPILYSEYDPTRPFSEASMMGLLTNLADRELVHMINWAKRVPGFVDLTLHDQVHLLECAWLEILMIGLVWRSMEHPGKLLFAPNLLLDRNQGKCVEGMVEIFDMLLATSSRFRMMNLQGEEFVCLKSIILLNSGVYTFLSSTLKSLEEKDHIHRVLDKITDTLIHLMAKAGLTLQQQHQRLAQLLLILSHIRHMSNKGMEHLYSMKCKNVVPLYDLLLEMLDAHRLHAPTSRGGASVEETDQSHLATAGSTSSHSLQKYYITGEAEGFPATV

[1] = system: MRC-5 human lung fibroblast cell lines
physchem = settings: pH 7.4
ERβ = ERβ (Homo sapiens, UniProt Q92731); test: Fluorescence polarization competition assay: antagonistic potency and relative binding affinity; settings: log of % relative binding affinity, estradiol = 100%
[2] = Serum biochemical markers after treatment of MNU-induced rats; format: in vivo, Wistar rats; settings: for ALP (A/L) / ALT (A/L) / AST (U/L) / γ-GT (U/L): serum; for TBC: total bilirubin content
Method: (§1) Rats were housed at 3 per cage and
(§2) The breast cancer was induced after the MNU (Sigma Aldrich CAS No. 684-93-5) administration. An aqueous solution at a concentration of 10 mg/ml was made by wetting the NMU powder with 3% acetic acid and then dissolving it in 0.9% NaCl solution; a fresh solution was prepared for each injection. Rats were given intraperitoneal (i.p.) 50 mg/kg of MNU on the 50th day of age. Animals were divided into different groups with six animals in each group. Group I (intact control) received 0.9% NaCl solution.
(§3) Groups II-IV and V-VII were introduced with MNU. Two weeks after MNU treatment, animals were treated orally with synthesized compounds and control substances (5 and 50 mg/kg, for groups II-IV and V-VII, respectively) by gavage once per day for six weeks. Animals in the intact control group and untreated MNU group were given vehicle (Tween 80) according to the experimental protocol. […]
Upon finishing the treatment with synthesized compounds, animals were sacrificed, and plasma, serum, and liver samples were collected.
Measurement of Serum Biochemical Markers
The activities of AST and ALT on 340 nm, and ALP on 405 nm, were determined by UV-Vis kinetic methods according to recommendations of the Expert Panel of the IFCC (International Federation of Clinical Chemistry). The colorimetric methods were used for the determination of total bilirubin (Jendrassik-Grof 550 nm method). All kinetic and colorimetric measurements were recorded using a Perkin-Elmer Lambda 25 UV/Vis spectrophotometer. […]

[3] = Plasma protein binding determination; format: in vitro ADME, rat; settings: rat, plasma
Method: as §1, §2, §3
(§4) Upon finishing the treatment with synthesized compounds, animals were sacrificed, and plasma, serum, and liver samples were collected. […]
Rat plasma containing either 5 or 50 mg/kg bwt of the tested compounds was incubated at 37°C upper reservoir of the washed Centri-free YM-30 ultrafiltration units (Millipore, Bedford, MA) and then centrifuged for 20 min at 2,000 g. Aliquots of the ultrafiltrates and unfiltered incubation mixtures were analyzed for the total protein concentration by the bicinchoninic acid assay for protein concentration (BCA assay; Pierce, Rockford, IL).

[4] = Liver oxidative stress markers after treatment of MNU-induced rats; format: in vivo, Wistar rats; settings: rat, in vivo
Method: as §1, §2, §3, §4
Determination of Antioxidant Markers in Liver Homogenate
Rat liver samples were homogenized in phosphate buffer (5 mM, pH = 7.4) to give a 10% (w/v) liver homogenate and then centrifuged at 4000 rpm for 15 min at 4°C. The supernatant of liver homogenate was used for the estimation of reduced glutathione (GSH) and catalase (CAT) levels by the colorimetric method. The contents of malondialdehyde (MDA) in the supernatant of the liver homogenates were determined using 1,1,3,3-tetraethoxypropane as standard. Total protein concentrations were determined according to the method of Lowry using bovine serum albumin as […]

MCF-7 cells = test: Cell cycle distribution by flow cytometry; format: cell-based, human; settings: 24 h
[5] = system: MNU-induced breast cancer tissue; test: Histopathology of breast sections; format: in vivo, Wistar rats
Excerpt: The impact of selected leads on BC tissue was registered after their administration to experimental animals with MNU-induced BC (Figure 9 and Supplementary Material Figures S211–S218). […] In contrast to this, the administered leads were harmless in both concentrations, neutralizing the MNU-induced changes, judging by the lobuloalveolar units and cuboidal epithelial cells found (Figure 9C,D, and Supplementary Material Figures S214–S218). […]
Histopathological Studies
histopathological changes. […]

[6] = both, Wistar, rat, in vivo, po
[7] = rat, in vivo
[8] = system: Ishikawa endometrial adenocarcinoma cells; test: Antiproliferative assay; format: cell-based; settings: Homo sapiens, growth inhibition
Excerpt: As SERMs profile is often associated with the stimulation of endometrial cell proliferation and an increase in the incidence of endometrial cancer (EC), the herein compounds were therefore evaluated against Ishikawa endometrial adenocarcinoma cells (Table 8, Supplementary Material Figures […]). […] However, future experimental elaboration, currently beyond the authors' experimental facilities, is required to confirm compounds' promising profiles in terms of no EC induction.

[9] = system: progesterone receptor (PR); test: ERα functional antagonism cell assay (PR as biomarker) in MCF-7; format: cell-based; settings: Homo sapiens, MCF7; progesterone receptor as biomarker for ERα antagonism in MCF-7
[10] = system: MNU-induced breast cancer; test: In vivo anticancer screening, MNU-induced mammary tumorigenesis; parameters: species or system female Wistar rats
[11] = virtually screened NCI hits, Table S17, read-out: MDA-MB-231 (IC50)
[12] = virtually screened NCI hits, Table S17, read-out: MCF-7 (IC50)
[13] = dose 50 mg/kg (compounds per os after MNU; MNU alone i.p.)

ERβ, sequence (Q92731 whole entry): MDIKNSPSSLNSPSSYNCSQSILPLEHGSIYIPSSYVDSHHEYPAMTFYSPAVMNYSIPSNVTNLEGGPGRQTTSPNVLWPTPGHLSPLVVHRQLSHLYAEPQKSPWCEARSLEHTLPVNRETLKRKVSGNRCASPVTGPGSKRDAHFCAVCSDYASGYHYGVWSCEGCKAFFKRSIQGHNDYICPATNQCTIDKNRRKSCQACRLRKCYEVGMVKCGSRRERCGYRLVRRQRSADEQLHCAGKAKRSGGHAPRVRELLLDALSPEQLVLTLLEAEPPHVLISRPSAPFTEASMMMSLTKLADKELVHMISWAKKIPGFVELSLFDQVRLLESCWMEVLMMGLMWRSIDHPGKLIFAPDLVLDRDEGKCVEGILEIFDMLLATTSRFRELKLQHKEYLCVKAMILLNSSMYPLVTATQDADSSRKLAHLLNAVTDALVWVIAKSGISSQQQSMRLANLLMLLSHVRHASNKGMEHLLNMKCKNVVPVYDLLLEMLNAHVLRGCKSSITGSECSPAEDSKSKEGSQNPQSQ

`O=C(c1ccccc1)c1ccccc1C(=O)c1ccccc1` [Compound 6145] gave an IC50 (MDA-MB-231 cell lines; [11]) greater than 100000 nM, an IC50 (MCF-7 cell lines; [12]) of 93400 ± 11400 nM and an IC50 (ERα) of 75.5 ± 6.46 µM. It also gave an IC50 [1] greater than 100 µM.

Work on `O=C(O)c1ccccc1-n1c2ccccc2c2ccccc21` [Compound 10211] yielded an IC50 (MDA-MB-231 cell lines; [11]) greater than 100000 nM, an IC50 (ERα) of 66.9 ± 6.46 µM and an IC50 [1] greater than 100 µM.

In the case of `c1ccc(-n2c3ccccc3c3ccccc32)cc1` [Compound 10416], the IC50 (MDA-MB-231 cell lines; [11]) is reported as greater than 100000 nM, the IC50 (MCF-7 cell lines; [12]) is reported as 89000 ± 11400 nM and the IC50 (ERα) is reported as 74.8 ± 6.46 µM. For the same compound, the IC50 [1] was greater than 100 µM.

With `O=c1c(-c2ccc(O)cc2)coc2cc(O)cc(O)c12` [Compound 36586] the IC50 (MDA-MB-231 cell lines; [11]) was greater than 100000 nM, the IC50 (MCF-7 cell lines; [12]) was greater than 100000 nM and the IC50 [1] was greater than 100 µM.

In the case of `COc1ccc(C(C#N)=C(c2ccccc2)c2ccccc2)cc1` [Compound 101789], the IC50 (MDA-MB-231 cell lines; [11]) is reported as greater than 100000 nM, the IC50 (MCF-7 cell lines; [12]) is reported as 25900 ± 11400 nM and the IC50 (ERα) is reported as 17.9 ± 1.34 µM. For the same compound, the IC50 [1] was 14.2 ± 11.4 µM.

In the case of `O=C(c1ccc(OCCN2CCCCC2)cc1)c1c(-c2ccc(O)cc2)sc2cc(O)ccc12` [Ral., Raloxifene, reference compound], the IC50 (MDA-MB-231 cell lines; growth inhibition, 48 h, read-out: MDA-MB-231 (IC50 nM)) is reported as 93.41 ± 0.48 nM, the IC50 (MDA-MB-231 cell lines; references in Table S17, read-out: MDA-MB-231 (IC50 nM)) is reported as 93.12 ± 0.24 nM and the logD at 30 min (physchem) is reported as 2.39. For the same compound, the “logRBA ERβ” value (ERβ) was 1.42 ^†, the “ALP (A/L)” value ([2]; dose 5 mg/kg) was 99.54±0.32 A/L and the “ALT (A/L)” value ([2]; dose 5 mg/kg) was 50.14±0.35 A/L. For the same compound, the “AST (U/L)” value ([2]; dose 5 mg/kg) was 53.57±0.43 U/L, the “γ-GT (U/L)” value ([2]; dose 5 mg/kg) was 11.43 U/L and the “ALP (A/L)” value ([2]; dose 50 mg/kg) was 106.43±0.54 A/L. For the same compound, the “ALT (A/L)” value ([2]; dose 50 mg/kg) was 52.46±0.42 A/L, the “AST (U/L)” value ([2]; dose 50 mg/kg) was 58.41±0.32 U/L and the “γ-GT (U/L)” value ([2]; dose 50 mg/kg) was 12.35±0.31 U/L. It also gave a TBC ([2]; dose 5 mg/kg) of 18.53, a TBC ([2]; dose 50 mg/kg) of 22.46 and a fraction unbound at 5 mg/kg bwt [3] of 0.0185. For the same compound, the fraction unbound at 50 mg/kg bwt [3] was 0.019, the CAT ([4]; 5 mg/kg) was 10.73±0.32 and the “GSH” value ([4]; 5 mg/kg) was 6.65 mg/g. For the same compound, the “SOD (U/mg)” value ([4]; 5 mg/kg) was 6.89±0.56 U/mg, the “TBARS” value ([4]; 5 mg/kg) was 2.31 ± 0.56 nmol/mg and the “TP” value ([4]; 5 mg/kg) was 42.67 g/L. For the same compound, the CAT ([4]; 50 mg/kg) was 14.43±0.56, the “GSH” value ([4]; 50 mg/kg) was 5.54 ± 0.36 mg/g and the “SOD (U/mg)” value ([4]; 50 mg/kg) was 8.46±0.23 U/mg. For the same compound, the “TBARS” value ([4]; 50 mg/kg) was 2.63 ± 0.21 nmol/mg, the “TP” value ([4]; 50 mg/kg) was 44.43 g/L and the “Cell Cycle (%) G0/G1” value (MCF-7 cells; 0.1 nM) was 59.14 ± 0.54 *^,†,‡ %. The “Cell Cycle (%) G2/M” value (MCF-7 cells; 0.1 nM) was 25.03 ± 0.35 *^,†,‡ %, the “Cell Cycle (%) S” value (MCF-7 cells; 0.1 nM) was 15.83 ± 0.53 *^,†,‡ % and the “Cell Cycle (%) G0/G1” value (MCF-7 cells; 1 nM) was 66.52 ± 0.56 *^,†,‡ %. For the same compound, the “Cell Cycle (%) G2/M” value (MCF-7 cells; 1 nM) was 17.11 ± 0.46 *^,†,‡ %, the “Cell Cycle (%) S” value (MCF-7 cells; 1 nM) was 16.37 ± 0.46 *^,†,‡ % and the IC50 (MCF-7 cell lines; read-out: MCF-7 (IC50 nM)) was 0.9 ± 0.19 nM. For the same compound, the breast section histopathology ([5]; 5 mg/kg of bwt) was “differentiated extralobular ducts (ED)”, the breast section histopathology ([5]; 50 mg/kg of bwt) was “differentiated extralobular ducts (ED)” and the BIO ([6]; 5 mg/kg) was 93 ^‡. The BIO ([6]; 50 mg/kg) was 96, the “WL after MFD (day 1, mg)” value [7] was 310.54 ± 0.45 mg and the “WL after MFD (day 5, mg)” value [7] was 300.54 ± 0.48 mg. For the same compound, the IC50 [8] was 0.97 ± 0.35 nM, the IC50 [9] was greater than 100 nM and the “Tumor Burden (week)” value ([10]; dose 5 mg/kg per os after MNU) was 3.11 ± 0.47 *^,†,‡ week. For the same compound, the “Tumor Latency (week)” value ([10]; dose 5 mg/kg per os after MNU) was 8 * week, the “Tumor Volume (mm^3)” value ([10]; dose 5 mg/kg per os after MNU) was 1.67 ± 0.31 *^,†,‡ mm^3 and the “Tumor Burden (week)” value [10, 13] was 2.91 ± 0.22 *^,†,§ week. The “Tumor Latency (week)” value [10, 13] was 13 *^,† week and the “Tumor Volume (mm^3)” value [10, 13] was 1.41 ± 0.54 *^,†§ mm^3.
